Data taken from patent publication US20250302788A1, “COMPOSITION COMPRISING CREATINE FOR USE IN THE TREATMENT OF POST VIRAL FATIGUE SYNDROME” (Alzchem Trostberg GmbH, priority 2022, published 2025).

Legend:
[1] = both, human, in vivo, 3 months
Post-COVID patients = assay: MFI-20 fatigue test, Example 2; assay type: in vivo, human; conditions: plus breathing exercise
Protocol: The patient-reported outcomes for COVID-19-related signs and symptoms (e.g. headache, concentrating difficulties, anosmia, ageusia) were evaluated with VAS scale. Fatigue, comprising the conditions of the group general fatigue, physical fatigue, metal fatigue, reduced activity, and reduced motivation, was evaluated with a multidimensional fatigue inventory test (MFI-20 test, Smets E. M. et al., J. Psychosom. Res. 1995, 39 (3), 315).

CN(CC(=O)O)C(=N)N.O [Creatine + Breathing Exercise, creatine monohydrate]
Cohen's effect size (d) for creatine increment, right frontal grey matter [1]: 1.76
Cohen's effect size (d) for creatine increment, vastus medialis muscle [1]: 0.77
General fatigue (MFI-20 score) (Post-COVID patients; 3 months): 12.3
Mental fatigue (MFI-20 score) (Post-COVID patients; 3 months): 11.5
Physical fatigue (MFI-20 score) (Post-COVID patients; 3 months): 12.2
Reduced activity (MFI-20 score) (Post-COVID patients; 3 months): 12.8
Reduced motivation (MFI-20 score) (Post-COVID patients; 3 months): 12.8
General fatigue (MFI-20 score) (Post-COVID patients; Baseline): 11.5
Mental fatigue (MFI-20 score) (Post-COVID patients; Baseline): 11.8
Physical fatigue (MFI-20 score) (Post-COVID patients; Baseline): 12.3
Reduced activity (MFI-20 score) (Post-COVID patients; Baseline): 12.5
Reduced motivation (MFI-20 score) (Post-COVID patients; Baseline): 13.5
